According to patent US8173668B1 (Alcon Research, Ltd., priority 2007, dated 2012):

Assays:
[1] = system: Human trabecular meshwork (TM) cells; assay: PGE2 production (RIA) in human trabecular meshwork cells; format: cell-based; conditions: 1 h at 37° C., BK 100 nM or 1 μM, fluprostenol 1 μM, non-peptide agonists 1 μM or 10 μM, FIG. 6
Protocol: The ability of BK agonists to stimulate prostaglandin E2 (PGE2) production was examined as follows. Human trabecular meshwork (TM) cells were seeded in culture plates and allowed to reach confluence. […] Fluprostenol was used as a positive control. After this time the assay was terminated by placing the assay plates on ice and by the addition of 100 μL of a cell-lysis reagent supplied with the PGE2 radioimmunoassay (RIA) kit (Amersham Pharmacia Biotech, Arlington Heights, Ill.). All reagents and standards supplied in the RIA kit were prepared and the RIA performed according to the manufacturer's instructions. Assay buffer, diluted prostaglandin E2 (PGE2) standard and supernatant from the cell-based experiment (diluted 1:100 v/v) were then pipetted into appropriate tubes as specified in the kit instructions. […]
(§1) After this incubation, all tubes were placed in an ice-bath and 1 ml cold precipitating reagent supplied in the kit was added to the tubes, the content mixed and incubated for 25 min at 4° C. […] The supernatants of all tubes were decanted as specified in the kit instructions and the RIA samples analyzed on a gamma-counter. The levels of PGE2 generated by the test agent were then quantified in comparison with the PGE2-standard curve. Dose-response data for the test agent were constructed and the potency and intrinsic activity determined as described above for other assays.

guinea pigs = assay: IOP-lowering activity in guinea pigs; format: in vivo
Text: (§2) Some obvious drawbacks and reasons for the lack of consistent observations noted above are probably related to species differences in the effects of BK on IOP changes and on the fact that BK is a labile peptide that can easily and rapidly be inactivated by kininases and other proteases when it comes into contact with body fluids (Hall, Pharmacol. Ther., 56, 131-190, 1992). Additionally, topical ocular administration of peptides such as BK are confounded by the potential lack of or little bioavailability through the cornea to reach the anterior segment of the eye. […] This is probably related to the attainment of a relevant concentration in the aqueous humor and ciliary body when the compound was administered topical ocularly.

h-CM cells = assay: Prostaglandin production in h-CM cells; format: cell-based, human; conditions: 1-10 μM
Protocol: A functional assay to discover BK agonists may involve the measurement of prostaglandin E2 (PGE2) production (Wiernas et al. Brit. J. Pharmacol. 123: 1127-1137, 1998), for instance, in cells isolated from human or animal ocular or non-ocular tissues, or cells expressing recombinant (preferably human) BK receptors. Cells expressing BK receptors are seeded in 48-wells culture plates and allowed to reach confluence. After this time the cells are rinsed twice with 0.5 mL of phosphate buffered saline and incubated with the test agent made up in 0.5 mL Dulbeco's modified Eagle's medium (DMEM)/F-12 for 1 h at 37° C. […]
as §1, with “are” for “were”, “is” for “was”, “assays. […]” for “assays.”

[2] = system: rabbits (New Zealand White and Dutch-Belted); assay: IOP-lowering activity in rabbits; format: in vivo
Text: as §2
IOP is determined with an applanation pneumatonometer after light corneal anesthesia with 0.1% proparacaine. After baseline IOP measurements are taken, one eye of each of 7-10 (or both eyes of 5) rabbits per compound dose is topically dosed with compound. Either the contralateral eye is dosed with vehicle or a separate group of rabbits is used for vehicle control. Subsequent IOP measurements are taken at 0.5, 1, 2, 3, and 4 hours. In cases where the compound has poor ocular bioavailability, the compound may need to be administered intracamerally or intravitreally in order to observe the IOP-lowering efficacy.

CNC(=O)c1ccc(/C=C/C(=O)NCC(=O)N(C)c2ccc(Cl)c(COc3cccc4c(OCc5ccccn5)cc(C)nc34)c2Cl)cc1 [FR-190997]
production of endogenous prostaglandins (PGE2) [1]: stimulated production of endogenous prostaglandins
ability to lower IOP (guinea pigs): unable to lower IOP
production of prostaglandins (h-CM cells): 1.75 fold above basal
ability to lower IOP [2]: unable to lower IOP
